One may read the EC50 as the concentration that produces a half-maximal response.

The target in this test is T1, apelin receptor (APJ) (Homo sapiens, UniProt P35414).
T1 sequence (P35414 1-380): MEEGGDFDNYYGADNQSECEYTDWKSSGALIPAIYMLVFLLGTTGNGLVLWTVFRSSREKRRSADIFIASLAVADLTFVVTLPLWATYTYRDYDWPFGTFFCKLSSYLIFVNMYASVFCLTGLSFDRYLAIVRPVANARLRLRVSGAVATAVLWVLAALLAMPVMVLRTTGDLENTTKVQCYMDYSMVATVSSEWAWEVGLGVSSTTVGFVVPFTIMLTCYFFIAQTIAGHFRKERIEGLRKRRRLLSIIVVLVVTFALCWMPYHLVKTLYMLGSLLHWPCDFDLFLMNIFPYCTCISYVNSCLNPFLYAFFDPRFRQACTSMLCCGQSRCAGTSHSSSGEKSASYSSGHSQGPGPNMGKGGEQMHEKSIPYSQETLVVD
As to the kind of experiment: In vitro apelin agonist activity (methods of Giddings et al., Apelin-13 as positive control). Format: cell-based. As to conditions: in vitro apelin agonist activity, methods of Giddings et al., Apelin-13 as positive control; read-out: EC50 (nM) Ave. An excerpt:
Characterization of the Apelin Agonist Activity of the Compounds
1:39-47, the contents of which are hereby incorporated by reference in its entirety. Using the methods described in Giddings et al. and Apelin-13 as a positive control.
In the case of `COc1cccc(OC)c1-c1cc(C(=O)N[C@@H](CCN2CCCCC2)CC(=O)Nc2nccs2)nn1C1CCCC1` [compound 338, (3S)-3-{[1-cyclopentyl-5-(2,6-dimethoxyphenyl)-1H-pyrazol-3-yl]formamido}-5-(piperidin-1-yl)-N-(1,3-thiazol-2-yl)pentanamide], the half-maximal effective concentration (EC50) was 12 nM.
The value for `COc1cccc(OC)c1-c1cc(C(=O)N[C@@H](CCN2CCCCC2)CC(=O)Nc2ncco2)nn1C1CCCC1` [compound 339, (3S)-3-{[1-cyclopentyl-5-(2,6-dimethoxyphenyl)-1H-pyrazol-3-yl]formamido}-N-(1,3-oxazol-2-yl)-5-(piperidin-1-yl)pentanamide] was 31 nM; that for `CCN(C(=O)c1cc(-c2c(OCC(F)(F)F)cccc2OCC(F)(F)F)n(C2CCCC2)n1)[C@@H](CCN1CCCCC1)CC(=O)NC1CCC1` [compound 342, (3S)-3-(1-{5-[2,6-bis(2,2,2-trifluoroethoxy)phenyl]-1-cyclopentyl-1H-pyrazol-3-yl}-N-ethylformamido)-N-cyclobutyl-5-(piperidin-1-yl)pentanamide] was more than 10000 nM.
Under `COc1cccc(OC)c1-c1cc(C(=O)N[C@@H](CCN2CCCCC2)Cc2nnc(C)o2)nn1C1CCCC1` [compound 343, 1-cyclopentyl-5-(2,6-dimethoxyphenyl)-N-[(2S)-1-(5-methyl-1,3,4-oxadiazol-2-yl)-4-(piperidin-1-yl)butan-2-yl]-1H-pyrazole-3-carboxamide] stands 1530 nM; under `CCN(C(=O)c1cc(-c2ccccc2OC(F)(F)F)n(C2CCCC2)n1)[C@@H](CCN1CCCCC1)CC(=O)NC1CCC1` [compound 344, (3S)-N-cyclobutyl-3-(1-{1-cyclopentyl-5-[2-(trifluoromethoxy)phenyl]-1H-pyrazol-3-yl}-N-ethylformamido)-5-(piperidin-1-yl)pentanamide], 2370 nM.
Under `CCN(C(=O)c1cc(-c2c(F)cccc2OC)n(C2CCCC2)n1)[C@@H](CCN1CCCCC1)CC(=O)NC1CCC1` [compound 345, (3S)-N-cyclobutyl-3-{1-[1-cyclopentyl-5-(2-fluoro-6-methoxyphenyl)-1H-pyrazol-3-yl]-N-ethylformamido}-5-(piperidin-1-yl)pentanamide] stands more than 10000 nM; under `CCC(CC)n1nc(C(=O)N(CC)[C@@H](CCN2CCCCC2)CC(=O)NC2CCC2)cc1-c1c(OC)cccc1OC` [compound 346, (3S)-N-cyclobutyl-3-{1-[5-(2,6-dimethoxyphenyl)-1-(pentan-3-yl)-1H-pyrazol-3-yl]-N-ethylformamido}-5-(piperidin-1-yl)pentanamide], more than 10000 nM.
For `CCN(C(=O)c1cc(-c2cccs2)n(C2CCCC2)n1)[C@@H](CCN1CCCCC1)CC(=O)NC1CCC1` [compound 347], the concentration giving a half-maximal response (EC50) is more than 10000 nM.
Under `COc1cccc(OC)c1-c1cc(C(=O)N[C@@H](CCN2CC3(CCC3)C2)CC(=O)NC2CCC2)nn1C1CCCC1` [compound 349] stands 197 nM; under `COc1cccc(OC)c1-c1cc(C(=O)N[C@@H](CCN2CCCCC2)CC(=O)N(C)c2nccs2)nn1C1CCCC1` [compound 351, (3S)-3-{[1-cyclopentyl-5-(2,6-dimethoxyphenyl)-1H-pyrazol-3-yl]formamido}-N-methyl-5-(piperidin-1-yl)-N-(1,3-thiazol-2-yl)pentanamide], 73 nM.
The value for `COc1cccc(OC)c1-c1cc(C(=O)N[C@@H](CCN2CCCCC2)CC(N)=O)nn1C1CCCC1` [compound 352, (3S)-3-{[1-cyclopentyl-5-(2,6-dimethoxyphenyl)-1H-pyrazol-3-yl]formamido}-5-(piperidin-1-yl)pentanamide] was more than 10000 nM; that for `O=C(C[C@H](CCN1CCCCC1)NC(=O)c1cc(-c2c(OCC(F)(F)F)cccc2OCC(F)(F)F)n(C2CCCC2)n1)NC1CCC1` [compound 353] was more than 10000 nM; that for `O=C(C[C@H](CCN1CCCCC1)NC(=O)c1cc(-c2c(F)cc(F)cc2F)n(C2CCCC2)n1)NC1CCC1` [compound 354, (3S)-N-cyclobutyl-3-{[1-cyclopentyl-5-(2,4,6-trifluorophenyl)-1H-pyrazol-3-yl]formamido}-5-(piperidin-1-yl)pentanamide] was more than 10000 nM.
Under `CCOc1cc(F)c(-c2cc(C(=O)N[C@@H](CCN3CCCCC3)CC(=O)NC3CCC3)nn2C2CCCC2)c(F)c1` [compound 355, (3S)-N-cyclobutyl-3-{[1-cyclopentyl-5-(4-ethoxy-2,6-difluorophenyl)-1H-pyrazol-3-yl]formamido}-5-(piperidin-1-yl)pentanamide] stands 5080 nM; under `COc1cccc(OC)c1-c1cc(C(=O)N[C@@H](CCN2CCCCC2)CC(=O)NC2CCC2)nn1C1CCCCC1C` (stereo partly drawn) [compound 356, (3S)-N-cyclobutyl-3-{[5-(2,6-dimethoxyphenyl)-1-(2-methylcyclohexyl)-1H-pyrazol-3-yl]formamido}-5-(piperidin-1-yl)pentanamide], more than 10000 nM; under `CCC(CC)n1nc(C(=O)N[C@@H](CCN2CCCCC2)CC(=O)NC2CCC2)cc1-c1c(OC)cccc1OC` [compound 357, (3S)-N-cyclobutyl-3-{[5-(2,6-dimethoxyphenyl)-1-(pentan-3-yl)-1H-pyrazol-3-yl]formamido}-5-(piperidin-1-yl)pentanamide], more than 10000 nM.
Turning to `COc1cccc(OC)c1-c1cc(C(=O)N[C@H](CCO)CCN2CCCCC2)nn1C1CCCC1` [compound 358], the EC50 was more than 10000 nM.
Turning to `O=C(C[C@H](CCN1CCCCC1)NC(=O)c1cc(-c2ccccc2OC(F)(F)F)n(C2CCCC2)n1)NC1CCC1` [compound 359, (3S)-N-cyclobutyl-3-({1-cyclopentyl-5-[2-(trifluoromethoxy)phenyl]-1H-pyrazol-3-yl]formamido)-5-(piperidin-1-yl)pentanamide], the EC50 is 271 nM.
As to `CSc1ccccc1-c1cc(C(=O)N[C@@H](CCN2CCCCC2)CC(=O)NC2CCC2)nn1C1CCCC1` [compound 360, (3S)-N-cyclobutyl-3-({1-cyclopentyl-5-[2-(methylsulfanyl)phenyl]-1H-pyrazol-3-yl]formamido)-5-(piperidin-1-yl)pentanamide], the EC50 is 376 nM.
`COc1ccccc1-c1cc(C(=O)N[C@@H](CCN2CCCCC2)CC(=O)NC2CCC2)nn1C1CCCC1` [compound 361, (3S)-N-cyclobutyl-3-{[1-cyclopentyl-5-(2-methoxyphenyl)-1H-pyrazol-3-yl]formamido}-5-(piperidin-1-yl)pentanamide]: the concentration giving a half-maximal response (EC50) worked out at 234 nM.
With `O=C(C[C@H](CCN1CCCCC1)NC(=O)c1cc(-c2cccs2)n(C2CCCC2)n1)NC1CCC1` [compound 362, (3S)-N-cyclobutyl-3-{[1-cyclopentyl-5-(thiophen-2-yl)-1H-pyrazol-3-yl]formamido}-5-(piperidin-1-yl)pentanamide], the 50% effective concentration (EC50) is 5860 nM.
Regarding `COc1cccc(OC)c1-c1cc(C(=O)N[C@@H](CCN2CCCCC2)Cc2nnn[nH]2)nn1C1CCCC1` [compound 364, 1-cyclopentyl-5-(2,6-dimethoxyphenyl)-N-[(2S)-4-(piperidin-1-yl)-1-(1H-1,2,3,4-tetrazol-5-yl)butan-2-yl]-1H-pyrazole-3-carboxamide], the 50% effective concentration (EC50) was 235 nM.
`O=C(C[C@H](CCN1CCCCC1)NC(=O)c1cc(-c2ccccc2)n(C2CCCC2)n1)NC1CCC1` [compound 365, (3S)-N-cyclobutyl-3-[(1-cyclopentyl-5-phenyl-1H-pyrazol-3-yl)formamido]-5-(piperidin-1-yl)pentanamide]: the EC50 was more than 10000 nM.
Under `O=C(C[C@H](CCN1CCCCC1)NC(=O)c1cc(-c2ccc(F)cc2OCC(F)(F)F)n(C2CCCC2)n1)NC1CCC1` [compound 366, (3S)-N-cyclobutyl-3-({1-cyclopentyl-5[4-fluoro-2-(2,2,2-trifluoroethoxy)phenyl]-1H-pyrazol-3-yl]formamido)-5-(piperidin-1-yl)pentanamide] stands more than 10000 nM; under `CS(=O)(=O)c1ccccc1-c1cc(C(=O)N[C@@H](CCN2CCCCC2)CC(=O)NC2CCC2)nn1C1CCCC1` [compound 367, (3S)-N-cyclobutyl-3-{[1-cyclopentyl-5-(2-methanesulfonylphenyl)-1H-pyrazol-3-yl]formamido}-5-(piperidin-1-yl)pentanamide], 2970 nM.
Under `O=C(C[C@H](CCN1CCCCC1)NC(=O)c1cc(-c2cncnc2)n(C2CCCC2)n1)NC1CCC1` [compound 368, (3S)-N-cyclobutyl-3-{[1-cyclopentyl-5-(pyrimidin-5-yl)-1H-pyrazol-3-yl]formamido}-5-(piperidin-1-yl)pentanamide] stands more than 10000 nM; under `Cc1noc(C)c1-c1cc(C(=O)N[C@@H](CCN2CCCCC2)CC(=O)NC2CCC2)nn1C1CCCC1` [compound 369, (3S)-N-cyclobu tyl-3-{[1-cyclopentyl-5-(dimethyl-1,2-oxazol-4-yl)-1H-pyrazol-3-yl]formamido}-5-(piperidin-1-yl)pentanamide], more than 10000 nM.
The value for `COc1cccc(Cl)c1-c1cc(C(=O)N[C@@H](CCN2CCCCC2)CC(=O)NC2CCC2)nn1C1CCCC1` [compound 370, (3S)-3-{[5-(2-chloro-6-methoxyphenyl)-1-cyclopentyl-1H-pyrazol-3-yl]formamido}-N-cyclobutyl-5-(piperidin-1-yl)pentanamide] was 1030 nM; that for `Cc1cccc(C)c1-c1cc(C(=O)N[C@@H](CCN2CCCCC2)CC(=O)NC2CCC2)nn1C1CCCC1` [compound 371, (3S)-N-cyclobutyl-3-{[1-cyclopentyl-5-(2,6-dimethylphenyl)-1H-pyrazol-3-yl]formamido}-5-(piperidin-1-yl)pentanamide] was 3840 nM.

Source of the values: patent US11535630B2, “Apelin receptor (APJ) agonists and uses thereof” (Research Triangle Institute, priority 2015, dated 2022).
